Assay results as given in PMC7269481, “ZN148 Is a Modular Synthetic Metallo-β-Lactamase Inhibitor That Reverses Carbapenem Resistance in Gram-Negative Pathogens In Vivo” (Antimicrobial Agents and Chemotherapy, 2020).

Experiments:
VIM-2 = molecular target: T1, VIM-2 (Escherichia coli, UniProt Q5U7L7); experiment: Time-dependent inactivation kinetics of purified VIM-2 (nitrocefin); format: biochemical
T1 construct: made in house
Experimental: Protein expression and purification of NDM-1 and VIM-2 were performed as previously described ([36], [43], [57]). Stock solutions of purified NDM-1 and VIM-2 were prepared in 50 mM HEPES buffer (pH 7.5; Merck). Inhibition of NDM-1 and VIM-2 were determined for ZN148 and the analogues ZN222, ZN223, and ZN228 at different concentrations of inhibitor after preincubation times of 2, 8, 15, 25, and 32 min in 50 mM HEPES buffer (pH 7.5) supplemented with 1 μM ZnSO4 (Sigma-Aldrich) and bovine serum albumin (Sigma-Aldrich; final concentration, 2 μg/ml) at 25°C. Concentrations of 1 nM VIM-2 and 30 nM NDM-1 were used, and the reaction was initiated by the addition of 30 μM nitrocefin (Merck) for VIM-2 or 100 μM imipenem (Sigma-Aldrich) for NDM-1. The reaction was measured at 482 nm (VIM-2) or […] (NDM-1) in either standard 96-well plates (Thermo Fisher Scientific) for VIM-2 or UV-transparent 96-well plates (Corning, Kennebunk, ME) for NDM-1 at 25°C in a SpectraMax Plus plate reader (Molecular Devices). All of the enzyme and substrate concentrations indicated are the final concentrations in the assay. The enzyme activity as a percentage was calculated based on the initial velocity and compared to the control without inhibitor compound. All tests were performed at least in duplicates.
The observed rate constant (kobs) per inhibitor concentration was calculated from the slope of a semilog plot of the enzyme activity in percent versus preincubation time.
By fitting these values, the irreversible kinetic parameters maximum inactivation rate (kinact) and the inhibitor concentration that produces half-maximal rate of inactivation (KI) were obtained. Finally, the inhibitors were characterized by calculating kinact/KI. Where no saturation curve could be observed, KI and kinact were determined from the linear part of plot 1/kobs versus 1/[I].

HepG2 cells = experiment: In vitro toxicity, alamarBlue viability; format: cell-based, human; settings: Homo sapiens, HepG2, 24 h
Experimental: The human hepatoblastoma HepG2 cell line (HB-8065; ATCC, Manassas, VA) was cultured in DMEM-GlutaMAX (5.5 mM glucose; Thermo Fisher) supplemented with 10% fetal bovine serum (Sigma-Aldrich), streptomycin (100 μg/ml; Gibco/Thermo Fisher), and penicillin (100 U/ml; Gibco/Thermo Fisher) at 37°C in 5% CO2. For viability assays, cells were seeded in white 96-well Nunclon plates (Sigma-Aldrich) at a density of 20,000 cells/well and left overnight to adhere. ZN148 and TPA (Sigma-Aldrich, Darmstadt, Germany) dissolved in dimethyl sulfoxide (DMSO; (Sigma-Aldrich) were added to the white 96-well plates containing 20,000 HepG2 cells/well at concentrations ranging from 1 to 1 × 10^−3 mM (a DMSO concentration kept below 1%), followed by incubation for 24 h at 37°C in 5% CO2. After 24 h, alamarBlue cell viability reagent (Thermo Fisher, Carlsbad, CA) was added (10% final concentration), followed by incubation for 4 h at 37°C. The proportion of viable cells in each well was measured in a fluorescence plate reader (Clariostar; BMGlabtech, Germany) at excitation 550 nm/emission 603 nm ([56]). Data from eight replicates were fitted by nonlinear regression to determine IC50 values using Prism (GraphPad Software, Inc.).

[1] = system: NDM-1-producing K. pneumoniae K66-45; experiment: Serial passage on increasing meropenem; format: cell-based; settings: for fold increase in meropenem MIC after serial passaging: compared to control culture / original MIC
Experimental: K. pneumoniae K66-45 was passaged in a 96-well microtiter plate with a consistent concentration of ZN148 and increasing concentrations of meropenem. To start the passaging, cation-adjusted Mueller-Hinton broth II medium (Sigma-Aldrich) containing 0.0625 mg/liter (0.5× MIC) and 50 or 100 μM ZN148 was inoculated with 1% of overnight culture, which was grown without selection. Six biological replicates were passaged in parallel, and from each of the six overnight cultures four wells were inoculated, resulting in 24 subcultures for each ZN148 concentration. After 24 h of incubation at 37°C and shaking at 180 rpm, the wells were visually checked for growth.

E. coli with VIM (n=7) = experiment: Meropenem MIC distribution, E. coli with VIM; format: cell-based; settings: MEM alone or +50 µM ZN148
Experimental: (§1) MICs of carbapenems alone and in combination with inhibitors were determined by broth microdilution according to the Clinical and Laboratory Standards Institute (CLSI) guidelines ([48]) using either premade plates (TREK Diagnostic Systems/Thermo Fisher Scientific, East Grinstead, United Kingdom) with meropenem or in-house-prepared plates with meropenem, imipenem, and doripenem. ZN148 and other inhibitors were tested at a fixed concentration of 50 μM. Cation-adjusted Mueller-Hinton medium (TREK Diagnostic Systems/Thermo Fisher Scientific; Becton Dickinson, Franklin Lakes, NJ) were used as growth medium. The plates were incubated for 20 h at 37°C. ZN148, ZN222, ZN223, ZN228, and TPA were initially tested in combination with meropenem using two indicator strains: NDM-1-producing K. pneumoniae ([49], [50]) and VIM-2-producing P. aeruginosa ([51]). The activity of ZN148 were subsequently tested against two extended strain collections: (i) in combination with meropenem against MBL-producing Enterobacterales (n = 62), MBL-producing P. aeruginosa (n = 9) and MBL- and class D carbapenemase-coproducing Enterobacterales (n = 5) from the strain collection at the Norwegian National Advisory Unit on Detection of Antimicrobial Resistance and (ii) in combination with meropenem, imipenem, and doripenem against globally collected MBL-producing E. coli (n = 87), K. pneumoniae (n = 85), P. aeruginosa (n = 52), and A. baumannii (n = 6), MBL- and class A/D carbapenemase-coproducing E. coli (n = 11), K. pneumoniae (n = 15) and A. baumannii (n = 7) at IHMA Europe, Sàrl, Switzerland. E. coli ATCC 25922 and P. aeruginosa ATCC 27853 were used as quality control strains. The MBL inhibitors were also tested for intrinsic antibacterial activity against the strains.

[2] = system: M. morganii co-producing MBLs and class A/D serine carbapenemases; experiment: Meropenem MIC, M. morganii co-producing NDM-1 and OXA-48; format: cell-based; settings: Morganella morganii; NDM-1 + OXA-48 strain; meropenem alone or with 50µM ZN148
Experimental: MICs of carbapenems alone and in combination with inhibitors were determined by broth microdilution according to the Clinical and Laboratory Standards Institute (CLSI) guidelines ([48]) using either premade plates (TREK Diagnostic Systems/Thermo Fisher Scientific, East Grinstead, United Kingdom) with meropenem or in-house-prepared plates with meropenem, imipenem, and doripenem. ZN148 and other inhibitors were tested at a fixed concentration of 50 μM. Cation-adjusted Mueller-Hinton medium (TREK Diagnostic Systems/Thermo Fisher Scientific; Becton Dickinson, Franklin Lakes, NJ) were used as growth medium. The plates were incubated for 20 h at 37°C. ZN148, ZN222, ZN223, ZN228, and TPA were initially tested in combination with meropenem using two indicator strains: NDM-1-producing K. pneumoniae ([49], [50]) and VIM-2-producing P. aeruginosa ([51]). […]

[3] = system: K. pneumoniae with VIM (n=17); experiment: Meropenem MIC distribution, K. pneumoniae with VIM; format: cell-based; settings: MEM alone or +50 µM ZN148
Experimental: as §1

Row | Structure (SMILES) | kinact (VIM-2) [s⁻¹] | kinact/KI (VIM-2) [M⁻¹ s⁻¹] | IC50 (HepG2 cells) [µM] | maximum meropenem MIC reached by evolved cultures ([1]; 50 µM ZN148, 8 passages) [µg/mL] | maximum meropenem MIC reached by evolved cultures ([1]; 100 µM ZN148, 6 passages) [µg/mL] | fold increase in meropenem MIC after serial passaging ([1]; in the presence of 50 μM ZN148) [fold] | fold increase in meropenem MIC after serial passaging ([1]; in the presence of 100 μM ZN148) [fold] | No. of strains with indicated MIC (E. coli with VIM (n=7); MIC 0.5 mg/L) | No. of strains with indicated MIC (E. coli with VIM (n=7); MIC 8 mg/L) | No. of strains with indicated MIC (E. coli with VIM (n=7); MIC 16 mg/L) | No. of strains with indicated MIC (E. coli with VIM (n=7); MIC 32 mg/L) | MIC [2] [µg/mL] | No. of strains with indicated MIC ([3]; MIC 2 mg/L) | No. of strains with indicated MIC ([3]; MIC 4 mg/L) | No. of strains with indicated MIC ([3]; MIC 8 mg/L) | No. of strains with indicated MIC ([3]; MIC 16 mg/L) | No. of strains with indicated MIC ([3]; MIC 32 mg/L) | No. of strains with indicated MIC ([3]; MIC ≥64 mg/L)
1 | CN(C[C@H](O)[C@@H](O)[C@H](O)[C@H](O)CO)C(=O)c1ccc(CN(Cc2ccccn2)Cc2ccccn2)nc1 [ZN148] | 0.00262 | 110 | > 100 | 8 | 2 | 64 | 16 | – | – | – | – | – | – | – | – | – | – | –
2 | C[C@@H](O)[C@H]1C(=O)N2C(C(=O)O)=C(S[C@@H]3CN[C@H](C(=O)N(C)C)C3)[C@H](C)[C@H]12 [meropenem] | – | – | – | – | – | – | – | 1 | 3 | 2 | 1 | 8 | 2 | 2 | 1 | 4 | 3 | 5
